Laboratory results as given in patent US12558342B2, “2-[2-({12,12-dimethyl-4-oxo-6-phenyl-3,11-dioxatricyclo[8.4.0.0,2,7]tetradeca-1,5,7,9-tetraen-8-yl}oxy)acetamido]benzamide and derivatives as inhibitor of clock:bmal1 interaction for the treatment of circadian rhythm diseases and disorders” (KOC UNIVERSITESI, priority 2019, dated 2026).

Columns and labels:
[1] = test system: Clock-deficient MDA MB231 cells; test: Bmal1::dluc rhythm in Clock knockout MDA MB231 cells; assay type: cell-based; conditions: Clock knockout MDA MB231, different concentrations
Method: We used Bmal1::dluc U2-OS and Per1::dluc NIH 3T3, and continuously monitored the bioluminescence to record circadian rhythm. This experiment was performed in 96-well plates (triplicates) and 35-mm dishes (duplicates) in the secondary screen and detailed characterization steps respectively. Briefly, cells were seeded to reach confluency. A day after, the medium was replaced with DMEM containing 0.1 μM Dexamethasone to synchronize cells. […] The 96-well plates were covered and bioluminescence was monitored by Synergy H1 Hybrid Multi-Mode Reader every 32 minutes. […] Bioluminescence was recorded every 10 minutes for 4-6 days. […] The first day's data was excluded from the analysis due to transient perturbations of luminescence after the medium change.
HEK 293T cells at 75-85% confluency were transfected with […] of pLV6-Bmal-luc plasmid, 9 ng of pCMV-AR8.2dvpr packaging vector and 1 ng of pCMV-VSVG envelope vector for 16 h. […] At 72-hour post-transduction, the circadian rhythms of cells monitored using Lumicycle.
We used Bmal1::dluc U2-OS and Per1::dluc NIH 3T3, and continuously monitored the bioluminescence to record circadian rhythm. […] The 96-well plates were covered and bioluminescence was monitored by Synergy H1 Hybrid Multi-Mode Reader every 32 minutes. […] Bioluminescence was recorded every 10 minutes for 4-6 days. […]

U2OS cells = test: MTT-based cell cytotoxicity test; set-up: species or system human
Method: The toxicity of the compounds was assessed by MTT-based assay using immortalized human osteosarcoma (U2OS) cells treated with different compounds at different concentrations. Cell viability was measured with MTT-based cell cytotoxicity test. U2OS cells were seeded on 96-well plate with 4×10^3 cell/well density. Two days later, the cells were treated with an appropriate amount of different small molecules. Control cells were treated with 0.5% vehicle (DMSO). After 48 hours, the media was replaced with a 20% solution of 5 mg/ml MTT in DMEM. After 4 hours of incubation, the media was discarded and a 1:1 solution of ethanol and DMSO was used to dissolve the formazan crystals. Cell viability was measured as stated in Sigma-Aldrich product information.
Compounds with a relative cell viability of less than 80% at 1.25 μM were eliminated. The final concentration of a non-toxic compounds for in vitro experiments was set to the maximum concentration at which it had at least 80% relative cell viability. Ultimately, 72 compounds were statistically identified as non-toxic and used for the next characterization step.

CLOCK, BMAL1 and CRY1 = test: In vivo study in mouse liver, Western blot; conditions: 25 mg/kg i.p., 6 h
Method: Male C57BL/6J mice, 8 weeks of age, weighing 18-24 g were treated with two different single doses of CLK8 (25 mg/kg n=5 per each dose) intraperitoneally. Control mice (n=3) were only treated with vehicle (DMSO:Cremophor EL: 0.9% NaCl; 2.5:15:82.5, v/v, i.p.). Water and food were provided ad libitum throughout the experiments. Six hours after injection, mice were sacrificed by cervical dislocation. Liver tissues were removed, frozen in liquid nitrogen and stored at −80° C. until further processing.

Structure (SMILES): CC1(C)CCc2c(cc(OCC(=O)Nc3ccccc3C(N)=O)c3c(-c4ccccc4)cc(=O)oc23)O1 [CLK8, 2-[2-({12,12-dimethyl-4-oxo-6-phenyl-3,11-dioxatricyclo [8.4.0.0,2,7]tetradeca-1,5,7,9-tetraen-8-yl}oxy)acetamido] benzamide]
- CLK8-mediated increase in Bmal1-luc intensity [1]: abolished
- toxicity to the U2OS cell line (U2OS cells): not toxic
- CLOCK abundance in the nucleus (liver) (CLOCK, BMAL1 and CRY1): significantly low
- CLOCK levels in whole liver cell lysate (CLOCK, BMAL1 and CRY1): decrease
- cytosolic and nuclear BMAL1 and CRY1 (liver) (CLOCK, BMAL1 and CRY1): unaltered
- levels of BMAL1 and CRY1 in whole liver cell lysate (CLOCK, BMAL1 and CRY1): unaltered
